Patent US5605700A (priority 1992, dated 1997)
Entries after “also recorded” stand apart in the source; their conditions may differ. Each block holds one molecule with its values, some of them ahead of it.

Columns and labels:
[1] = Tissue distribution of toremifene and metabolites after 5 days IP vs. topical toremifene (HPLC), mice with MDA A-1 tumors; conditions: for concentration at 2 h: mouse
Experimental: Sixteen female athymic nude mice were injected with a 20-gauge needle subcutaneously with 5×10^6 MDA A-1 cells in the left scapular area. The tumors were allowed to grow for three weeks prior to treatment.
Each of the three mice were injected IP using an 18 gauge needle with 50 μl, delivering 1 mg/day for five days. […] All mice were sacrificed on the fifth day of treatment two hours after the final dose. Blood specimens were collected by capillary pipette after disruption of axillary vessels and placed into heparinized centrifuge tubes. The brains, livers, and uterus were removed surgically and placed in separate tubes.
All blood samples were centrifuged at 1,000 g. The plasma was collected, measured for volume, and placed in clean extraction tubes. All remaining tissue samples were weighed, placed in extraction tubes, and spiked with an internal standard, nafoxidine. The tissues were thoroughly homogenized before the addition of 6 ml extraction fluid. Samples were collected and dried as described below. Before injection onto the HPLC column, each sample was reconstituted with 200 μl methanol. All samples were placed in a quartz cuvette for UV activation. The brain samples required filtration with disposable syringe filters.

MCF-7 cells = assay: Prevention of breast cancer (MCF-7) tumor growth by topical administration in the mouse; type: in vivo; conditions: topical 500 μg, 15 days
Experimental: In this study 12 mice were transplanted with MCF-7 cells and were allowed to grow until a small tumor was detected in all mice (<1 mm^3). At that time mice were divided into three groups of four mice each. […] All mice received the same amount of diluent/day (20 μl ). The study was assessed following 15 days of treatment.

MDR-positive cells = conditions: cited from earlier work; for multidrug resistance reversal / chemosensitizing activity: in vitro
[2] = system: estrogen receptors (ER's); conditions: cited from earlier work
[3] = cited from earlier work; for concentration: following large oral doses, read-out: plasma concentration
MDR MDA A-1 tumors = assay: Doxorubicin cytotoxicity enhancement in MDR tumors; clonogenic assay of tumors excised from treated mice; type: in vivo, mouse; conditions: for percent inhibition (clonogenic assay): all three tumors, doxorubicin 1 μg/ml 1 hour, 14 days
Experimental: Drug was applied dropwise to the skin surface directly and around the tumor. Each drop was allowed to evaporate completely. This treatment was administered once a day at the same time for a total of five days. […] Tumors were collected sterilely and processed for clonogenic assay.
The remaining portion was cloned following a 1 hour exposure to doxorubicin 1 μg/ml.

[4] = system: estrogen receptor (ER) positive metastatic breast cancer; conditions: cited from earlier work
TD 30 A = assay: Cytostatic effect in melanoma cell line TD 30 A; type: cell-based; conditions: human cell line TD 30 A; read-out: IC-50 (50% growth inhibitory concentration)
TD 8 = assay: Cytostatic effect in experimental cell line TD 8; type: cell-based; conditions: Monodelphis domestica, read-out: IC-50 (50% growth inhibitory concentration)
Text: (§1) The metastatic melanoma cell line, SK-MEL-31, was obtained from the American Type Culture Collection (Rockville, Md.). Two additional human cell lines were derived from portions of surgigally-excised large diameter, superficial spreading melanomas. TD 1.4 was developed from a benign melanoma, whereas TD 7.2 and TD 8 were derived from melanocytic hyperplasias.

[5] = system: six cell lines of melanocyte origin; assay: Cytostatic effect in all six cell lines of melanocyte origin; type: cell-based, human and Monodelphis domestica
Text: as §1

[6] = system: spontaneous non-Hodgkin's lymphoma; assay: Treatment of spontaneous non-Hodgkin's lymphoma in a baboon; type: in vivo
Experimental: Enlarged lymph nodes with diameters of 1-2 cm were evident in the both groins. Toremifene was dissolved in a. mixture of dimethylsulfoxide, ethanol and methylcellulose. […] On day 25 following start of treatment, topical therapy of right groin was re-instituted while continuing the oral treatment. […] The response to therapy was determined by measuring the sizes of the tumors on two perpendicular dimensions.

SD-MEL-31 = assay: Cytostatic effect in metastatic melanoma cell line SD-MEL-31 (text: SK-MEL-31); type: cell-based; conditions: human cell line SD-MEL-31; read-out: IC-50 (50% growth inhibitory concentration)
Text: as §1

TD 7.2 = assay: Cytostatic effect in experimental cell line TD 7.2; type: cell-based; conditions: Monodelphis domestica, read-out: IC-50 (50% growth inhibitory concentration)
Text: as §1

[7] = Tissue distribution of toremifene after single dose (500 μg) IP vs. topical; type: in vivo; conditions: mouse, 0.5 mg
Experimental: Single dose toremifene was administered by IP as described above, or topically with DMSO/ETOH/methylcellulose/water as the diluents. […] Tissue samples were collected as above.
All blood samples were centrifuged at 1,000 g. […] Samples were collected and dried as described below. […] The brain samples required filtration with disposable syringe filters.
DMSO and methylcellulose were used as the diluents. […] This was trend noted in both serum and uterus.

TD 36 = assay: Cytostatic effect in melanoma cell line TD 36; type: cell-based; conditions: human cell line TD 36; read-out: IC-50 (50% growth inhibitory concentration)
[8] = Plasma and tissue concentration of toremifene after topical administration in Monodelphis domestica; type: in vivo
Experimental: The dose was 0.5 mg/d in 3 and 1 mg/d in 3 animals.

TD 1.4 = assay: Cytostatic effect in experimental cell line TD 1.4; type: cell-based; conditions: Monodelphis domestica, read-out: IC-50 (50% growth inhibitory concentration)
Text: as §1

[9] = brain, topical or ocular, 2.5 mg/day
[10] = liver, topical or ocular, 2.5 mg
[11] = serum, topical or ocular, 2.5 mg
[12] = tumor, topical or ocular, 2.5 mg
[13] = uterus, topical or ocular, 2.5 mg
[14] = oral 1 g on days 15, 17, 19 and 23
[15] = right inguinal lymphoma, topical re-instituted while continuing oral

- Topical/IP brain concentration ratio ([1]; brain, topical 2.5 mg/day vs IP 1 mg/day, 5 days, listed as Trans 4-hydroxytoremifene): 1.00
- Topical/IP brain concentration ratio ([1]; brain, topical 2.5 mg/day vs IP 1 mg/day, 5 days, listed as trans 4-hydroxytoremifene): identical
- Topical/IP liver concentration ratio ([1]; liver, topical 2.5 mg/day vs IP 1 mg/day, 5 days): 1.63
- concentration at 2 h ([1]; brain, ip, 1 mg/day): 350 ng/g
- concentration at 2 h [1, 9]: 350 ng/g
- concentration at 2 h ([1]; liver, ip, 1 mg): 600 ng/g
- concentration at 2 h [1, 10]: 980 ng/g
- concentration at 2 h ([1]; serum, ip, 1 mg): 160 ng/mL
- concentration at 2 h [1, 11]: 100 ng/mL
- concentration at 2 h ([1]; tumor, ip, 1 mg): 880 ng/g
- concentration at 2 h [1, 12]: 2330 ng/g
- concentration at 2 h ([1]; uterus, ip, 1 mg): 830 ng/g
- concentration at 2 h [1, 13]: 700 ng/g
- Topical/IP serum concentration ratio ([1]; serum, topical 2.5 mg/day vs IP 1 mg/day, 5 days, listed as Trans 4-hydroxytoremifene): 0.63
- Topical/IP serum concentration ratio ([1]; serum, topical 2.5 mg/day vs IP 1 mg/day, 5 days, listed as trans 4-hydroxytoremifene): lower
- Topical/IP tumor concentration ratio ([1]; tumor, topical 2.5 mg/day vs IP 1 mg/day, 5 days, listed as Trans 4-hydroxytoremifene): 2.65
- Topical/IP tumor concentration ratio ([1]; tumor, topical 2.5 mg/day vs IP 1 mg/day, 5 days, listed as trans 4-hydroxytoremifene): greater concentrations
- Topical/IP uterus concentration ratio ([1]; uterus, topical 2.5 mg/day vs IP 1 mg/day, 5 days): 0.84
Compound: CN(C)CCOc1ccc(/C(=C(/CCCl)c2ccccc2)c2ccc(O)cc2)cc1 [4-hydroxytoremifene, 4-chloro-1-(4-hydroxyphenyl)-2-phenyl-1-[4-[2-(N, N-dimethylamino)ethoyoxy]phenyl]-1-butene]
- effect on tumor growth (MCF-7 cells): prevented tumor growth
- mice that developed a tumor (MCF-7 cells; four mice per group, all four control mice had tumors >6×8 mms): only one mouse
- multidrug resistance reversal / chemosensitizing activity (MDR-positive cells): have chemosensitizing activity in MDR-positive cells
- antiestrogenic potency among metabolites [2]: most potent antiestrogenic metabolite

- concentration at 2 h ([1]; brain, ip, 1 mg/day): 490 ng/g
- concentration at 2 h [1, 9]: 290 ng/g
- concentration at 2 h ([1]; liver, ip, 1 mg): 940 ng/g
- concentration at 2 h [1, 10]: 920 ng/g
- concentration at 2 h ([1]; serum, ip, 1 mg): 180 ng/mL
- concentration at 2 h [1, 11]: 80 ng/mL
- concentration at 2 h ([1]; tumor, ip, 1 mg): 1270 ng/g
- concentration at 2 h [1, 12]: 8430 ng/g
- concentration at 2 h ([1]; uterus, ip, 1 mg): 1180 ng/g
- concentration at 2 h [1, 13]: 560 ng/g
Compound: CNCCOc1ccc(C(=C(CCCl)c2ccccc2)c2ccccc2)cc1 [N-demethyltoremifene, 4-chloro-1,2-diphenyl-[4-[2-(N-methylamino)ethoxy-]phenyl]-1-butene]
- concentration [3]: ~10 µM
- multidrug resistance reversal / chemosensitizing activity (MDR-positive cells): have chemosensitizing activity in MDR-positive cells

Compound: COc1cccc2c1C(=O)c1c(O)c3c(c(O)c1C2=O)C[C@@](O)(C(=O)CO)C[C@@H]3O[C@H]1C[C@H](N)[C@H](O)[C@H](C)O1 [doxorubicin]
- sensitivity of tumor to doxorubicin without toremifene (MDR MDA A-1 tumors; mouse not treated with toremifene (FIG. 2)): resistant

Compound: CC/C(=C(\c1ccccc1)c1ccc(OCCN(C)C)cc1)c1ccccc1 [tamoxifen]
- estrogen receptor antagonism ([2]; inhibition of estrogen-induced growth): competitive antagonism of tumor estrogen receptors
- fraction of patients with temporary remission ([4]; ER positive metastatic breast cancer): About two-thirds
- endometrial toxicity ([4]; adjuvant therapy, women): increased risk of developing endometrial neoplasms; also recorded: endometrial dysplasia, bleeding, polyp formation and tumors

Compound: CN(C)CCOc1ccc(/C(=C(/CCCl)c2ccccc2)c2ccccc2)cc1 [toremifene]
- IC50 (TD 30 A): 7.7 µM
- IC50 (TD 8): 7.7 µM
- effect on tumor growth (MCF-7 cells): prevented tumor growth
- IC50 ([5]; Melanocyte, all six cell lines, read-out: range of IC-50s): 5.8 to 9.6 µM
- cytostatic effect ([5]; human and experimental melanomatous cell lines in vitro): clear cytostatic effect
- concentration [3]: ~10 µM
- systemic toxicity ([3]; high-dose toremifene (400 mg/day)): generally confined to vertigo, nausea and hot flashes
- concentration that reverses resistance in vitro (MDR-positive cells; achievable in vivo following oral therapy): 5 µM
- multidrug resistance reversal / chemosensitizing activity (MDR-positive cells): have chemosensitizing activity in MDR-positive cells
- left inguinal lymphoma during oral therapy [6, 14]: stabilized
- right inguinal lymphoma during oral therapy [6, 14]: begun to regrow
- response of lymphoma to topical toremifene ([6]; right inguinal lymphoma, 1.4 g topical over 8 days): clear response
- tumor area after reinstituted topical therapy [6, 15]: 24 mm^2
- tumor area before reinstituted topical therapy [6, 15]: 476 mm^2
- in vivo antitumor response ([6]; topical, regional T-cell lymphoma): can produce an in vivo antitumor response
- IC50 (SD-MEL-31): 8.1 µM
- IC50 (TD 7.2): 9.6 µM
- concentration at 2 h ([7]; serum, ip, Serum toremifene concentration): 90 ng/mL
- concentration at 2 h ([7]; serum, topical or ocular, Serum toremifene concentration, topical in DMSO): 30 ng/mL
- concentration at 2 h ([7]; serum, topical or ocular, Serum toremifene concentration, topical in methylcellulose (MC)): 20 ng/mL
- concentration at 2 h ([7]; tumor, ip, Tumor toremifene concentration): 2570 ng/g
- concentration at 2 h ([7]; tumor, topical or ocular, Tumor toremifene concentration, topical in DMSO): 4650 ng/g
- concentration at 2 h ([7]; tumor, topical or ocular, Tumor toremifene concentration, topical in methylcellulose (MC)): 1800 ng/g
- concentration at 2 h ([7]; uterus, ip, Uterus toremifene concentration): 23600 ng/g
- concentration at 2 h ([7]; uterus, topical or ocular, Uterus toremifene concentration, topical in DMSO): 920 ng/g
- concentration at 2 h ([7]; uterus, topical or ocular, Uterus toremifene concentration, topical in methylcellulose (MC)): 1100 ng/g
- IC50 (TD 36): 5.8 µM
- percent inhibition (clonogenic assay) (MDR MDA A-1 tumors; intraperitoneal toremifene): < 30%
- percent inhibition (clonogenic assay) (MDR MDA A-1 tumors; topical toremifene): > 30%
- sensitization of tumors to doxorubicin (MDR MDA A-1 tumors; topical toremifene, cloning studies (FIG. 2)): appears to sensitize these MDR MDA A-1 tumors to doxorubicin
- mean concentration of toremifene in brain ([8]; topical 0.5 mg/day for 5 days): 0.82 ± 0.99 nmol/g
- mean concentration of toremifene in skin ([8]; topical 0.5 mg/day for 5 days): 1296.40 ± 1003.93 nmol/g
- mean concentration of toremifene in brain ([8]; topical 1 mg/day for 5 days): 0.82 ± 0.62 nmol/g
- mean concentration of toremifene in skin ([8]; topical 1 mg/day for 5 days): 1237.35 ± 768.90 nmol/g
- Toremifene concentration in skin as compared to other tissues ([8]; topical 0.5 and 1 mg/day for 5 days): more than 500 fold
- IC50 (TD 1.4): 9.3 µM

Compound: COc1ccc(CCN(C)CCCC(C#N)(c2ccc(OC)c(OC)c2)C(C)C)cc1OC (stereo not drawn) [verapamil]
- multidrug resistance reversal / chemosensitizing activity (MDR-positive cells): shown to reverse multidrug resistance in vitro
